# Assay results reported in patent publication US5336673A, “3-substituted cephem compounds” (priority 1990, dated 1994).
# Like-named read-outs stand apart in the source and are kept apart here.
# Assays:
# [1] = target: T1, β-lactamase from Citrobacter freundii (Citrobacter freundii, UniProt P05193); assay: Stability against β-lactamase, relative hydrolysis; assay type: biochemical; details: Citrobacter freundii enzyme; 100 μM; relative(percentage), Cephaloridine taken as 100; OD at 260 nm
# T1 construct: directly isolated from Enterobacter cloacae P99, E. coli TEM and Citrobacter freundii; endogenous in cells
# Protocol: (§1) In order to establish the usefulness in clinical applications of the compounds provided by the invention, the compound of Example 18 was tested for stability against the β-lactamase and for antibacterial activity on systemic infection model.
# (§2) First, the stability against the β-lactamase was tested by determining the relative(percentage) hydrolysis of the compound of Example 18, relative to that of Cephaloridine, taking the absolute rate of Cephaloridine as 100.
# (§3) The β-lactamases employed in the test were directly isolated from Enterobacter cloacae P99, E. coli TEM and Citrobacter freundii, and the antibiotics for comparison were Cephaloridine, Cephradine, Cefoperazone and Cefotaxime.
# (§4) Cephaloridine, other known antibiotics and the compound of Example 18 were reacted with each of the enzymes isolated from the strains and the OD were determined at 260 nm, λmax of Cephaloridine. The relative hydrolysis of various compounds were calculated relative to the OD of Cephaloridine.
# [2] = target: T2, β-lactamase from E. coli TEM (Escherichia coli, UniProt P62593); assay: Stability against β-lactamase, relative hydrolysis; assay type: biochemical; details: E. coli TEM enzyme; 100 μM; relative(percentage), Cephaloridine taken as 100; OD at 260 nm
# T2 construct: directly isolated from Enterobacter cloacae P99, E. coli TEM and Citrobacter freundii; endogenous in cells; host or cells: E. coli TEM (plasmid-carried enzyme of the strain)
# Protocol: as §1, §2, §3, §4
# [3] = target: T3, β-lactamase from Enterobacter cloacae P99 (Enterobacter cloacae, UniProt P05364); assay: Stability against β-lactamase, relative hydrolysis; assay type: biochemical; details: Enterobacter cloacae P99 enzyme; 100 μM; relative(percentage), Cephaloridine taken as 100; OD at 260 nm
# T3 construct: directly isolated from Enterobacter cloacae P99, E. coli TEM and Citrobacter freundii; endogenous in cells; host or cells: Enterobacter cloacae P99
# Protocol: as §3
# The relative hydrolysis of various compounds were calculated relative to the OD of Cephaloridine.
# [4] = system: Staphylococcus aureus SG 511; assay: Antibacterial activity, MIC by Agar dilution method, standard test strain 4; assay type: cell-based; details: SG511, 10^7 CFU/ml, 37° C., 18 hours
# Protocol: (§5) The antibacterial activity was determined by an Agar dilution method as described below.
# (§6) That is, the two-fold serial dilutions of the antibacterial compounds (1000 μg compound/ml) were prepared and dispersed in Muller Hinton Agar in a petri dish to a concentration of 100~0.002 μg/ml. The culture broths of standard test strains were inoculated on the medium to a concentration 10^7 CFU/ml, and incubated at 37° C. for 18 hours. The concentration of compounds(I) at which the strains were not grown was regarded as minimum inhibition concentration (MIC).
# (§7) The results of antibacterial activity test of the representative examples of the compound (I) against 20 standard test strains shown in terms of MIC were indicated in Table 1.
# 4. Staphylococcus aureus SG 511
# [5] = system: Staphylococcus aureus 503; assay: Antibacterial activity, MIC by Agar dilution method, standard test strain 6; assay type: cell-based; details: 10^7 CFU/ml, 37° C., 18 hours
# Protocol: as §5, §6, §7
# 6. Staphylococcus aureus 503
# [6] = system: Streptococcus pyogenes A 308; assay: Antibacterial activity, MIC by Agar dilution method, standard test strain 1; assay type: cell-based; details: A308, 10^7 CFU/ml, 37° C., 18 hours
# Protocol: as §5, §6, §7
# 1. Streptococcus pyogenes A 308
# Enterobacter cloacae P99 = assay: Antibacterial activity, MIC by Agar dilution method, standard test strain 19; assay type: cell-based; details: P99, 18 h
# Protocol: as §5, §6, §7
# 19. Enterobacter cloacae P99
# Acute toxcity test = details: in vivo, male ICR-mouse, after 1 week
# Protocol: Further, in order to illustrate the usefulness of the compounds (I) as a drug, compounds of Examples 12, 18 and 36 were tested for acute toxcity by using 4 weeks-old male ICR-mouse as a test animal.
# the compounds were dissolved in physiological saline and phosphate buffered solution (pH 7.0), or if they were […], suspended in carboxymethylcellulose or gum Arabic and then mixed with phosphate buffered solution.
# The solution or mixture was administered to the tested animals intravenously or subcutaneously and, after 1 week, the number of surviving animals was calculated.
# Escherichia coli 1507E = assay: Antibacterial activity, MIC by Agar dilution method, standard test strain 11; assay type: cell-based; details: Escherichia coli 1507E; 10^7 CFU/ml, 37° C., 18 hours; read-out: MIC
# Protocol: as §5, §6, §7
# [7] = system: Pseudomonas aeruginosa 1771M; assay: Antibacterial activity, MIC by Agar dilution method, standard test strain 15; assay type: cell-based; details: 18 h
# Protocol: as §5, §6, §7
# 15. Pseudomonas aeruginosa 1771M
# [8] = system: Klebsiella aerogenes 1522E; assay: Antibacterial activity, MIC by Agar dilution method, standard test strain 18; assay type: cell-based; details: Klebsiella aerogenes 1522E; 10^7 CFU/ml, 37° C., 18 hours; read-out: MIC
# Protocol: as §5, §6, §7
# 18. Klebsiella aerogenes 1522E
# [9] = system: Pseudomonas aeruginosa 1592E; assay: Antibacterial activity, MIC by Agar dilution method, standard test strain 13; assay type: cell-based; details: 10^7 CFU/ml, 37° C., 18 hours
# Protocol: as §5, §6, §7
# 13. Pseudomonas aeruginosa 1592E
# [10] = system: Pseudomonas aeruginosa 9027; assay: Antibacterial activity, MIC by Agar dilution method, standard test strain 12; assay type: cell-based; details: 10^7 CFU/ml, 37° C., 18 hours
# Protocol: as §5, §6, §7
# 12. Pseudomonas aeruginosa 9027
# Klebsiella oxytoca 1082E = assay: Antibacterial activity, MIC by Agar dilution method, standard test strain 17; assay type: cell-based; details: 10^7 CFU/ml, 37° C., 18 hours
# Protocol: as §5, §6, §7
# [11] = system: Streptococcus faecium MD 86; assay: Antibacterial activity, MIC by Agar dilution method, standard test strain 3; assay type: cell-based; details: Enterococcus faecium, MD86, 10^7 CFU/ml, 37° C., 18 hours
# Protocol: as §5, §6, §7
# 3. Streptococcus faecium MD 86
# [12] = system: Pseudomonas aeruginosa 1771; assay: Antibacterial activity, MIC by Agar dilution method, standard test strain 14; assay type: cell-based; details: 10^7 CFU/ml, 37° C., 18 hours
# Protocol: as §5, §6, §7
# 14. Pseudomonas aeruginosa 1771
# [13] = system: Enterobacter cloacae 1321E; assay: Antibacterial activity, MIC by Agar dilution method, standard test strain 20; assay type: cell-based
# Protocol: as §5, §6, §7
# 20. Enterobacter cloacae 1321E
# [14] = system: Gram-positive strains as well as Gram-negative strains including Pseudomonas; assay: Antibacterial activity (summary in words); assay type: cell-based; details: Gram-positive and Gram-negative strains
# Protocol: as §5, §6
# [15] = system: Streptococcus pyogenes A 77; assay: Antibacterial activity, MIC by Agar dilution method, standard test strain 2; assay type: cell-based; details: A77, 10^7 CFU/ml, 37° C., 18 hours
# Protocol: as §5, §6, §7
# 2. Streptococcus pyogenes A 77
# Escherichia coli O 55 = assay: Antibacterial activity, MIC by Agar dilution method, standard test strain 7; assay type: cell-based
# Protocol: as §5, §6, §7
# Escherichia coli DC 2 = assay: Antibacterial activity, MIC by Agar dilution method, standard test strain 9; assay type: cell-based
# Protocol: as §5, §6, §7
# Salmonella typhimurium = assay: Antibacterial activity, MIC by Agar dilution method, standard test strain 16; assay type: cell-based; details: Salmonella enterica, 10^7 CFU/ml, 37° C., 18 hours
# Protocol: as §5, §6, §7
# 16. Salmonella typhimurium
# Escherichia coli DC O = assay: Antibacterial activity, MIC by Agar dilution method, standard test strain 8; assay type: cell-based; details: Escherichia coli DC O; 10^7 CFU/ml, 37° C., 18 hours; read-out: MIC
# Protocol: as §5, §6, §7
# Staphyloccus aureus 285 = assay: Antibacterial activity, MIC by Agar dilution method, standard test strain 5; assay type: cell-based; details: 10^7 CFU/ml, 37° C., 18 hours
# Protocol: as §5, §6, §7
# 5. Staphyloccus aureus 285
# Escherichia coli TEM = assay: Antibacterial activity, MIC by Agar dilution method, standard test strain 10; assay type: cell-based
# Protocol: as §5, §6, §7
# enterobacteria = details: against the enterobacteria; cited from earlier work
# T2 sequence (P62593 24-286 limits assumed): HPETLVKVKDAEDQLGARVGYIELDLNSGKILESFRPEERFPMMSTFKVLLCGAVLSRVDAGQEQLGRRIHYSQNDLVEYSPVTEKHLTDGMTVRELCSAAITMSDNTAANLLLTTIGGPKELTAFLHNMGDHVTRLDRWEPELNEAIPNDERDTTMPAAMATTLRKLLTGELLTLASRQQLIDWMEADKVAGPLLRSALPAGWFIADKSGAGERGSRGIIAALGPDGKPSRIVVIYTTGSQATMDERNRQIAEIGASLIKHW
# T1 sequence (P05193 21-381): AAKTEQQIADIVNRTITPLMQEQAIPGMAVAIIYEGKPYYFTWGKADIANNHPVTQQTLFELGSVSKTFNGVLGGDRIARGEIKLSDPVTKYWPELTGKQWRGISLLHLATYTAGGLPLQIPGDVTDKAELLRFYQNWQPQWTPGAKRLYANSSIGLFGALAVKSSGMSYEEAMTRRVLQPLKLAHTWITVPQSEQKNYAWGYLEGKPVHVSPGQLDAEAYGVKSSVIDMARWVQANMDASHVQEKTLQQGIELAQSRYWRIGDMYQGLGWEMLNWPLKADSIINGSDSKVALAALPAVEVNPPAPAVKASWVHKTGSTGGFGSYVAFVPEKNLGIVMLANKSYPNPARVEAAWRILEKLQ
# T3 sequence (P05364 21-381): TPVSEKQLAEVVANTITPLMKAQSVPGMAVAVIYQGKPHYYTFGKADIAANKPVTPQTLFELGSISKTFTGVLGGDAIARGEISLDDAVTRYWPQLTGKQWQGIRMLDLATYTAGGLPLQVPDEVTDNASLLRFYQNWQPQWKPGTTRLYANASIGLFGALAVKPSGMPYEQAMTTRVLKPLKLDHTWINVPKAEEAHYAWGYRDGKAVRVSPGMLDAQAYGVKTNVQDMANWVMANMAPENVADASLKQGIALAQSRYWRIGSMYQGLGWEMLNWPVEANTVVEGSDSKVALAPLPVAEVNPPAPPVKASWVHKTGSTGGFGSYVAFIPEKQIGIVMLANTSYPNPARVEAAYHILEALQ
Compound,Relative hydrolysis by β-lactamase [1],Relative hydrolysis by β-lactamase [2],Relative hydrolysis by β-lactamase [3],MIC [4],MIC [5],MIC [6],MIC (Enterobacter cloacae P99),MIC (Escherichia coli 1507E),MIC [7],MIC [8],MIC [9],MIC [10],MIC (Klebsiella oxytoca 1082E),MIC [11],MIC [12],MIC [15],MIC (Salmonella typhimurium),MIC (Escherichia coli DC O),MIC (Staphyloccus aureus 285),also measured
CCN1CCN(C(=O)N[C@@H](C(=O)N[C@@H]2C(=O)N3C(C(=O)O)=C(CSc4nnnn4C)CS[C@H]23)c2ccc(O)cc2)C(=O)C1=O [Cefoperazone],1.2,38.6,–,–,–,–,–,–,–,–,–,–,–,–,–,–,–,–,–,–
CC1=C(C(=O)O)N2C(=O)[C@@H](NC(=O)[C@H](N)C3=CCC=CC3)[C@H]2SC1 [Cephradine],13.6,0.8,14.9,–,–,–,–,–,–,–,–,–,–,–,–,–,–,–,–,–
"CO/N=C(\C(=O)N[C@@H]1C(=O)N2C(C(=O)[O-])=C(C[n+]3cn(N)cn3)CS[C@H]12)c1csc(N)n1 [Example 12, (6R,7R)-7-[(Z)-2-(2-aminothiazol-4-yl)-2-methoxyiminoacetamido]-3-[(4-amino-1,2,4-triazol-2-ium)methyl]-ceph-3-em-4-carboxylate]",–,–,–,1.56 µg/mL,0.781 µg/mL,0.007 µg/mL,100 µg/mL,0.098 µg/mL,0.195 µg/mL,0.049 µg/mL,6.25 µg/mL,12.5 µg/mL,1.56 µg/mL,> 100 µg/mL,6.25 µg/mL,0.007 µg/mL,0.098 µg/mL,0.098 µg/mL,3.12 µg/mL,"LD50 at 168 h (Acute toxcity test; sc, Subcutaneous administration): > 6000 mg/kg; LD50 at 168 h (Acute toxcity test; Intravenous administration): > 4000 mg/kg; MIC ([13]; Enterobacter cloacae, 1321E, 18 h): 0.025 µg/mL; antibacterial activity (in words) [14]: excellent antibacterial activity; MIC (Escherichia coli O 55; Escherichia coli, O55, 18 h): 0.025 µg/mL; MIC (Escherichia coli DC 2; DC2, Escherichia coli DC 2, 10^7 CFU/ml, 37° C., 18 hours, read-out: MIC): 0.097 µg/mL; MIC (Escherichia coli TEM; Escherichia coli, 18 h): 0.049 µg/mL"
"CO/N=C(\C(=O)N[C@@H]1C(=O)N2C(C(=O)O)=C(COC(C)=O)CS[C@H]12)c1csc(N)n1 [Cefotaxime, reference compound]",0.6,0.6,0.0,1.56 µg/mL,0.781 µg/mL,0.007 µg/mL,100 µg/mL,0.025 µg/mL,0.098 µg/mL,0.013 µg/mL,12.5 µg/mL,12.5 µg/mL,0.781 µg/mL,100 µg/mL,6.25 µg/mL,0.004 µg/mL,0.025 µg/mL,0.025 µg/mL,1.56 µg/mL,"antibacterial activity (in words) (enterobacteria): strong antibacterial activities; MIC ([13]; Enterobacter cloacae 1321E, 10^7 CFU/ml, 37° C., 18 hours, read-out: MIC): 0.013 µg/mL; MIC (Escherichia coli O 55; O55, Escherichia coli O 55, 10^7 CFU/ml, 37° C., 18 hours, read-out: MIC): 0.007 µg/mL; MIC (Escherichia coli DC 2; Escherichia coli, DC2, 18 h): 0.013 µg/mL; MIC (Escherichia coli TEM; Escherichia coli TEM, 10^7 CFU/ml, 37° C., 18 hours, read-out: MIC): 0.025 µg/mL"
